Patent US8530465B2, “1, 2-disubstituted amido-anthraquinone derivatives, preparation method and application thereof” (National Defense Medical Center, priority 2010, dated 2013)

Key:
RXF 393 = assay: NCI drug screen, RXF 393; assay type: cell-based, human; details: RXF 393 (Renal Cancer); 1.00E−5 Molar
Procedure: (§1) In brief, cellular protein levels were determined after 48 hours of drug exposure by sulforhodamine B colorimetry. Through the use of a time 0 cell control, the cell growth can be determined for each cell line thus allowing calculations of the 50% growth inhibitory concentration (GI50), the total growth inhibition (TGI), and the 50% lethal concentration (LC50). Comparison to plates not exposed to drug permits determination of concentration and times of exposure conferring 50% net growth inhibition (GI50), TGI, and 50% cell kill (LC50).
(§2) The screening system in United State National Cancer Institute (NCI) is consisted of 60 kinds of different human cancer cells, which can be used to assay the growth-inhibiting ability or cell toxicity of a compound against various cancer and tumor at a certain concentration.

HCT-116 = assay: NCI drug screen, HCT-116; assay type: cell-based, human; details: HCT-116 (Colon Cancer); 1.00E−5 Molar
Procedure: as §1, §2

SK-OV-3 = assay: NCI drug screen, SK-OV-3; assay type: cell-based, human; details: SK-OV-3 (Ovarian Cancer); 1.00E−5 Molar
Procedure: as §1, §2

KM12 = assay: NCI drug screen, KM12; assay type: cell-based, human; details: KM12 (Colon Cancer); 1.00E−5 Molar
Procedure: as §1, §2

COLO 205 = assay: NCI drug screen, COLO 205; assay type: cell-based, human; details: COLO 205 (Colon Cancer); 1.00E−5 Molar
Procedure: as §1, §2

HS 578-T = assay: NCI drug screen, HS 578-T; assay type: cell-based, human; details: HS 578-T (Breast Cancer); 1.00E−5 Molar
Procedure: as §1, §2

[1] = test system: 60 kinds of different human cancer cells; assay: NCI in vitro 60-cell Drug Screen, whole panel; assay type: cell-based; details: 1.00E−5 Molar; for Growth Percent, Mean: mean over tested cell lines; for growth-inhibiting effect against cancer cells, by cancer type: NCI's screen
Procedure: as §1
From the data analysis it follows that approximately 95% of the actives (potent anticancer drugs) from the 60 cell line screen can be identified. By these criteria, five compounds (each with its certification number, refer to FIG. 4) of the invention were reported that having anticancer activity.
as §2

SN12C = assay: NCI drug screen, SN12C; assay type: cell-based, human; details: SN12C (Renal Cancer); 1.00E−5 Molar
Procedure: as §1, §2

HOP-62 = assay: NCI drug screen, HOP-62; assay type: cell-based, human; details: HOP-62 (Non-Small Cell Lung Cancer); 1.00E−5 Molar
Procedure: as §1, §2

MDA-MB-231/ATCC = assay: NCI drug screen, MDA-MB-231/ATCC; assay type: cell-based, human; details: MDA-MB-231/ATCC (Breast Cancer); 1.00E−5 Molar
Procedure: as §1, §2

NCI-H226 = assay: NCI drug screen, NCI-H226; assay type: cell-based, human; details: NCI-H226 (Non-Small Cell Lung Cancer); 1.00E−5 Molar
Procedure: as §1, §2

MOLT-4 = assay: NCI drug screen, MOLT-4; assay type: cell-based, human; details: MOLT-4 (Leukemia); 1.00E−5 Molar
Procedure: as §1, §2

HCC-2998 = assay: NCI drug screen, HCC-2998; assay type: cell-based, human; details: HCC-2998 (Colon Cancer); 1.00E−5 Molar
Procedure: as §1, §2

MCF7 = assay: NCI drug screen, MCF7; assay type: cell-based, human; details: MCF7 (Breast Cancer); 1.00E−5 Molar
Procedure: as §1, §2

UACC-62 = assay: NCI drug screen, UACC-62; assay type: cell-based, human; details: UACC-62 (Melanoma); 1.00E−5 Molar
Procedure: as §1, §2

NCI drug screen, A489 = assay type: cell-based, human; details: A489 (Renal Cancer); 1.00E−5 Molar
Procedure: as §1, §2

HCT-15 = assay: NCI drug screen, HCT-15; assay type: cell-based, human; details: HCT-15 (Colon Cancer); 1.00E−5 Molar
Procedure: as §1, §2

LOX IMVI = assay: NCI drug screen, LOX IMVI; assay type: cell-based, human; details: LOX IMVI (Melanoma); 1.00E−5 Molar
Procedure: as §1, §2

NCI-H460 = assay: NCI drug screen, NCI-H460; assay type: cell-based, human; details: NCI-H460 (Non-Small Cell Lung Cancer); 1.00E−5 Molar
Procedure: as §1, §2

ACHN = assay: NCI drug screen, ACHN; assay type: cell-based, human; details: ACHN (Renal Cancer); 1.00E−5 Molar
Procedure: as §1, §2

UO-31 = assay: NCI drug screen, UO-31; assay type: cell-based, human; details: UO-31 (Renal Cancer); 1.00E−5 Molar
Procedure: as §1, §2

SW-620 = assay: NCI drug screen, SW-620; assay type: cell-based, human; details: SW-620 (Colon Cancer); 1.00E−5 Molar
Procedure: as §1, §2

OVCAR-4 = assay: NCI drug screen, OVCAR-4; assay type: cell-based, human; details: OVCAR-4 (Ovarian Cancer); 1.00E−5 Molar
Procedure: as §1, §2

OVCAR-5 = assay: NCI drug screen, OVCAR-5; assay type: cell-based, human; details: OVCAR-5 (Ovarian Cancer); 1.00E−5 Molar
Procedure: as §1, §2

A549/ATCC = assay: NCI drug screen, A549/ATCC; assay type: cell-based, human; details: A549/ATCC (Non-Small Cell Lung Cancer); 1.00E−5 Molar
Procedure: as §1, §2

CCRF-CEM = assay: NCI drug screen, CCRF-CEM; assay type: cell-based, human; details: CCRF-CEM (Leukemia); 1.00E−5 Molar
Procedure: as §1, §2

MDA-MB-468 = assay: NCI drug screen, MDA-MB-468; assay type: cell-based, human; details: MDA-MB-468 (Breast Cancer); 1.00E−5 Molar
Procedure: as §1, §2

BT-549 = assay: NCI drug screen, BT-549; assay type: cell-based, human; details: BT-549 (Breast Cancer); 1.00E−5 Molar
Procedure: as §1, §2

TK-10 = assay: NCI drug screen, TK-10; assay type: cell-based, human; details: TK-10 (Renal Cancer); 1.00E−5 Molar
Procedure: as §1, §2

HL-60(TB) = assay: NCI drug screen, HL-60(TB); assay type: cell-based, human; details: HL-60(TB) (Leukemia); 1.00E−5 Molar
Procedure: as §1, §2

SK-MEL-28 = assay: NCI drug screen, SK-MEL-28; assay type: cell-based, human; details: SK-MEL-28 (Melanoma); 1.00E−5 Molar
Procedure: as §1, §2

NCI/ADR-RES = assay: NCI drug screen, NCI/ADR-RES; assay type: cell-based, human; details: for Growth Percent: NCI/ADR-RES (Ovarian Cancer), 1.00E−5 Molar; for drug-resistance against adriamycin (ADR): human multiple drug-resistant cell NCI/ADR-RES
Procedure: as §1, §2

Row | Compound | Growth Percent (HCT-116) [%] | Growth Percent (KM12) [%] | Growth Percent, Mean [1] [%] | Growth Percent (SN12C) [%] | Growth Percent (HOP-62) [%] | Growth Percent (MDA-MB-231/ATCC) [%] | Growth Percent (NCI-H226) [%] | Growth Percent (MOLT-4) [%] | Growth Percent (MCF7) [%] | Growth Percent (UACC-62) [%] | Growth Percent (NCI drug screen, A489) [%] | Growth Percent (HCT-15) [%] | Growth Percent (LOX IMVI) [%] | Growth Percent (NCI-H460) [%] | Growth Percent (ACHN) [%] | Growth Percent (UO-31) [%] | Growth Percent (SW-620) [%] | Growth Percent (OVCAR-4) [%] | Growth Percent (OVCAR-5) [%] | Growth Percent (MDA-MB-468) [%] | other results
1 | Cc1ccc(C(=O)Nc2ccc3c(c2NC(=O)c2ccc(C)cc2)C(=O)c2ccccc2C3=O)cc1 [CC-04, 1,2-bis-(4-methylbenzamido)-anthraquinone] | 78.55 | 94.21 | 96.19 | 98.59 | 105.23 | 93.29 | 91.14 | 89.63 | 71.71 | 87.50 | 124.08 | 102.44 | 84.41 | 88.62 | 112.43 | 66.54 | 93.79 | 104.32 | 110.18 | 104.17 | Growth Percent (RXF 393): 88.25%; Growth Percent (SK-OV-3): 109.62%; Growth Percent (COLO 205): 108.57%; Growth Percent (HS 578-T): 105.96%; Growth Percent (HCC-2998): 84.68%; Growth Percent (A549/ATCC): 90.46%; Growth Percent (CCRF-CEM): 79.02%; Growth Percent (BT-549): 95.39%; Growth Percent (TK-10): 124.91%; Growth Percent (HL-60(TB)): 73.11%; Growth Percent (SK-MEL-28): 99.46%
2 | Cc1ccc(C(=O)Nc2c(NC(=O)CCl)ccc3c2C(=O)c2ccccc2C3=O)cc1 [CC-12, 1-(4-methylbenzamido)-2-(chloroacetamido)-anthraquinone] | −54.27 | −19.53 | −1.96 | −81.02 | −28.62 | 24.67 | −25.30 | −23.17 | −79.28 | −67.80 | 123.78 | −50.22 | −57.05 | 95.65 | 21.92 | 42.91 | −43.27 | 34.52 | 109.55 | −83.42 | Growth Percent (SK-OV-3): 106.24%; Growth Percent (COLO 205): −53.43%; Growth Percent (NCI/ADR-RES): 72.17%; drug-resistance against adriamycin (ADR) (NCI/ADR-RES): possessed drug-resistance against adriamycin (ADR); growth-inhibiting effect against cancer cells, by cancer type [1]: exhibited growth-inhibiting effect against cancer cells such as leukemia, non-small cell lung cancer, colon cancer, central nervous system (CNS) cancer, melanoma, ovarian cancer, renal cancer, prostate cancer, breast cancer; Growth Percent (A549/ATCC): −81.71%; Growth Percent (BT-549): 28.19%; Growth Percent (TK-10): 130.52%; Growth Percent (HL-60(TB)): −46.88%; Growth Percent (SK-MEL-28): −31.94%
3 | O=C(CCl)Nc1ccc2c(c1NC(=O)Cc1ccccc1)C(=O)c1ccccc1C2=O [CC-23, 1-[2-(phenyl)acetylamino]-2-(chloroacetamido)-anthraquinone] | 67.55 | 80.59 | 73.78 | 79.93 | 115.67 | 82.04 | 80.49 | 11.40 | 51.00 | 59.67 | 91.79 | 68.55 | 36.29 | 104.50 | 79.64 | 58.19 | 83.41 | 80.40 | 119.04 | 51.02 | Growth Percent (NCI/ADR-RES): 86.87%; drug-resistance against adriamycin (ADR) (NCI/ADR-RES): possessed drug-resistance against adriamycin (ADR); Growth Percent (HS 578-T): 66.65%; growth-inhibiting effect against cancer cells, by cancer type [1]: could inhibit the cancer cell growth of leukemia and melanoma; Growth Percent (HCC-2998): 94.74%; Growth Percent (CCRF-CEM): 33.97%; Growth Percent (BT-549): 79.78%; Growth Percent (TK-10): 120.81%; Growth Percent (HL-60(TB)): 41.36%; Growth Percent (SK-MEL-28): 88.68%
4 | Cc1ccc(C(=O)Nc2c(NC(=O)CN3CCCC3)ccc3c2C(=O)c2ccccc2C3=O)cc1 [CC-38, 1-(4-methylbenzamido)-2-[2-(tetrahydro-1H-1-pyrrolyl)acetylamino]-anthra quinone] | 58.46 | 51.05 | 74.53 | 74.82 | 113.43 | 73.34 | 90.22 | 48.20 | 70.79 | 76.82 | 68.12 | 73.22 | 80.62 | 61.05 | 82.23 | 69.24 | 82.29 | 47.06 | 102.31 | 69.27 | Growth Percent (RXF 393): 63.80%; Growth Percent (SK-OV-3): 82.13%; Growth Percent (COLO 205): 65.60%; Growth Percent (NCI/ADR-RES): 50.86%; Growth Percent (HS 578-T): 69.39%; Growth Percent (HCC-2998): 84.60%; Growth Percent (A549/ATCC): 84.88%; Growth Percent (CCRF-CEM): 39.61%; Growth Percent (BT-549): 81.58%; Growth Percent (TK-10): 86.85%; Growth Percent (HL-60(TB)): 96.11%; Growth Percent (SK-MEL-28): 92.18%
